Reference: patent US9073895B2 (Boehringer Ingelheim International GmbH, priority 2010, dated 2015)
pIC50: −log10 of the molar value.

Key:
[1] = test system: synthesis of LTB4 in human whole blood; assay: Human whole blood LTB4 production inhibition assay; format: cell-based; details: heparinized human whole blood, calcimycin 20 μM, plasma LTB4; read-out: HuWB IC50
Outline: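 Readout: plasma LTB4 by antibody-based HTRF. Compound added to heparinized human whole blood, 15 min 37° C; calcimycin 20 μM final (PBS pH 7.4), 30 min 37° C; spun 1500×g 5 min, plasma taken.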

[2] = target: T1, recombinant human FLAP protein (Homo sapiens, UniProt P20292); assay: FLAP binding assay (SPA, displacement of [125I]L-691,831); details: membranes of sf9 cells expressing human FLAP, [125I]L-691,831 probe; read-out: hFLAP binding IC50
T1 construct: made in house; host or cells: Sf9 insect cells (membrane fraction, 100,000 x g pellet)
T1 sequence (P20292 1-161): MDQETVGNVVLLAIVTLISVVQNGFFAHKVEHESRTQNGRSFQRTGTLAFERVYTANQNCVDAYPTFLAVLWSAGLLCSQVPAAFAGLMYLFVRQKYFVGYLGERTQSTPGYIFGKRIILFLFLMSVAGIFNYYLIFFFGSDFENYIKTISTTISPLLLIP
Outline: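 Membranes from sf9 cells expressing human FLAP (5 μg/well) were bound to WGA SPA beads (200 μg/well). Nonspecific binding was defined with 10 μM unlabelled L-691,831.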

Structure (SMILES)	pIC50 [1]	pIC50 [2]
Cc1nc(-c2ccc(NC(=O)C(c3ccc(-c4cnc(N)nc4)cc3)C(C)(C)C)nc2)cs1 (stereo not shown) [Example 90, 2-[4-(2-aminopyrimidin-5-yl)phenyl]-3,3-dimethyl-N-[5-(2-methyl-1,3-thiazol-4-yl)pyridin-2-yl]butanamide]	5.68	7.50
COC(=O)c1cc(NC(=O)C2(c3ccc(-c4cnc(N)nc4)cc3)CCC2)ccc1O [Example 97, methyl 5-[({1-[4-(2-aminopyrimidin-5-yl)phenyl]cyclobutyl}carbonyl)amino]-2-hydroxybenzoate]	5.39	8.31
N=C(N)NC(=O)c1ccc(NC(=O)C2(c3ccc(-c4cnc(N)nc4)cc3)CCC2)nc1 [Example 108, 6-[({1-[4-(2-aminopyrimidin-5-yl)phenyl]cyclobutyl}carbonyl)amino]-N-carbamimidoylpyridine-3-carboxamide]	5.72	8.70
Cn1cc(-c2ccc(NC(=O)C3(c4ccc(-c5cnc(N)nc5)cn4)CCC3)nc2)cn1 [Example 109, 1-[5-(2-aminopyrimidin-5-yl)pyridin-2-yl]-N-[5-(1-methyl-1H-pyrazol-4-yl)pyridin-2-yl]cyclobutanecarboxamide]	5.68	8.03
Cn1cc(NC(=O)C2(c3ccc(-c4cnc(N)nc4)cc3)CCC2)cn1 [Example 110, 1-[4-(2-aminopyrimidin-5-yl)phenyl]-N-(1-methyl-1H-pyrazol-4-yl)cyclobutanecarboxamide]	5.96	6.92
COc1cncc(-c2ccc(C(C)(C(=O)Nc3ccc(OCc4ccccn4)cc3)C(C)C)cc2)c1 (stereo not shown) [Example 111]	5.62	6.74
COc1cncc(-c2ccc(C(C)(C(=O)Nc3ccc(-c4csc(C)n4)cc3)C(C)C)cc2)c1 (stereo not shown) [Example 112, 2-[4-(5-methoxypyridin-3-yl)phenyl]-2,3-dimethyl-N-[4-(2-methyl-1,3-thiazol-4-yl)phenyl]butanamide]	5.69	6.64
COc1cncc(-c2ccc(C(C)(C(=O)Nc3cccc(-c4csc(C)n4)c3)C(C)C)cc2)c1 (stereo not shown) [Example 113, 2-[4-(5-methoxypyridin-3-yl)phenyl]-2,3-dimethyl-N-[3-(2-methyl-1,3-thiazol-4-yl)phenyl]butanamide]	4.98	6.41
COc1cncc(-c2ccc(C(C)(C(=O)Nc3ccc(C)nn3)C(C)C)cc2)c1 (stereo not shown) [Example 114]	< 4.70	6.54
CCCCc1ccc2cc(NC(=O)C(C)(c3ccc(-c4cncc(OC)c4)cc3)C(C)C)ccc2n1 (stereo not shown) [Example 115, N-(2-butylquinolin-6-yl)-2-[4-(5-methoxypyridin-3-yl)phenyl]-2,3-dimethylbutanamide]	4.77	6.72
COc1ncc(-c2ccc(C(C)(C(=O)Nc3ccc(-c4csc(C)n4)cc3)C(C)C)cc2)cn1 (stereo not shown) [Example 116, 2-[4-(2-methoxypyrimidin-5-yl)phenyl]-2,3-dimethyl-N-[4-(2-methyl-1,3-thiazol-4-yl)phenyl]butanamide]	4.96	6.37
Cc1nc(-c2ccc(NC(=O)C(C)(c3ccc(-c4cnc(N)nc4)cc3)C(C)C)cc2)cs1 (stereo not shown) [Example 117, 2-[4-(2-aminopyrimidin-5-yl)phenyl]-2,3-dimethyl-N-[4-(2-methyl-1,3-thiazol-4-yl)phenyl]butanamide]	5.81	8.03
Cc1nc(-c2ccc(NC(=O)C(C)(c3ccc(-c4cnn(C)c4)cc3)C(C)C)cc2)cs1 (stereo not shown) [Example 118, 2,3-dimethyl-2-[4-(1-methyl-1H-pyrazol-4-yl)phenyl]-N-[4-(2-methyl-1,3-thiazol-4-yl)phenyl]butanamide]	4.97	6.59

Further molecules by rising pIC50 [1], results first:

pIC50 [1]	pIC50 [2]	Structure (SMILES)
5.96	7.06	CS(=O)(=O)c1ccc(NC(=O)C2(c3ccc(-c4cnc(N)nc4)cn3)CCC2)cc1 [Example 107, 1-[5-(2-aminopyrimidin-5-yl)pyridin-2-yl]-N-[4-(methylsulfonyl)phenyl]cyclobutane-carboxamide]
5.97	7.84	Nc1ncc(-c2ccc(C3(C(=O)Nc4ccc(C(F)(F)F)c(F)c4)CCOCC3)cc2)cn1 [Example 83, 4-[4-(2-aminopyrimidin-5-yl)phenyl]-N-[3-fluoro-4-(trifluoromethyl)phenyl] tetrahydro-2H-pyran-4-carboxamide]
6.07	7.19	N#Cc1ccc(NC(=O)C2(c3ccc(-c4cnc(N)nc4)nc3)CCC2)nc1 [Example 94, 1-[6-(2-aminopyrimidin-5-yl)pyridin-3-yl]-N-(5-cyanopyridin-2-yl)cyclobutanecarboxamide]
6.07	7.90	Nc1ncc(-c2ccc(C3(C(=O)Nc4ccc(OCc5ccccc5)cc4)CCOCC3)cc2)cn1 [Example 85, 4-[4-(2-aminopyrimidin-5-yl)phenyl]-N-[4-(benzyloxy)phenyl]tetrahydro-2H-pyran-4-carboxamide]
6.14	7.81	Nc1ncc(-c2ccc(C3(C(=O)Nc4ccc5ncsc5c4)CCC3)cn2)cn1 [Example 92, 1-[6-(2-aminopyrimidin-5-yl)pyridin-3-yl]-N-(1,3-benzothiazol-6-yl)cyclobutanecarboxamide]
6.24	7.34	CS(=O)(=O)c1ccc(NC(=O)C2(c3ccc(-c4cnc(N)nc4)nc3)CCC2)cc1 [Example 99, 1-[6-(2-aminopyrimidin-5-yl)pyridin-3-yl]-N-[4-(methylsulfonyl)phenyl]cyclobutane-carboxamide]
6.39	7.73	Cc1ccc2cc(NC(=O)C3(c4ccc(-c5cnc(N)nc5)cc4)CCOCC3)ccc2n1 [Example 86, 4-[4-(2-aminopyrimidin-5-yl)phenyl]-N-(2-methylquinolin-6-yl)tetrahydro-2H-pyran-4-carboxamide]
6.48	8.69	Nc1ncc(-c2ccc(C3(C(=O)Nc4ccc(-c5ncn[nH]5)cn4)CCC3)cc2)cn1 [Example 102, 1-[4-(2-aminopyrimidin-5-yl)phenyl]-N-[5-(1H-1,2,4-triazol-5-yl)pyridin-2-yl]cyclobutanecarboxamide]
6.51	8.69	NC(=O)c1ccc(NC(=O)C2(c3ccc(-c4cnc(N)nc4)cc3)CCC2)nc1 [Example 93, 6-[({1-[4-(2-aminopyrimidin-5-yl)phenyl]cyclobutyl}carbonyl)amino]pyridine-3-carboxamide]
6.56	8.25	Nc1ncc(-c2ccc(C3(C(=O)Nc4ccc(S(=O)(=O)N5CCOCC5)cc4)CCC3)cc2)cn1 [Example 88, 1-[4-(2-aminopyrimidin-5-yl)phenyl]-N-[4-(mopholin-4-ylsulfonyl)phenyl]cyclobutane-carboxamide]
6.62	8.26	N#Cc1ccc(NC(=O)C2(c3ccc(-c4cnc(N)nc4)nc3)CCC2)cc1Cl [Example 91, 1-[6-(2-aminopyrimidin-5-yl)pyridin-3-yl]-N-(3-chloro-4-cyanophenyl)cyclobutane-carboxamide]
6.63	7.92	N#Cc1ccc(NC(=O)C2(c3ccc(-c4cnc(N)nc4)nc3)CCC2)cc1 [Example 98, 1-[6-(2-aminopyrimidin-5-yl)pyridin-3-yl]-N-(4-cyanophenyl)cyclobutane-carboxamide]
6.69	8.09	CS(=O)(=O)c1ccc(NC(=O)C2(c3ccc(-c4cnc(N)nc4)cc3)CCC2)cn1 [Example 89, 1-[4-(2-aminopyrimidin-5-yl)phenyl]-N-[6-(methylsulfonyl)pyridin-3-yl]cyclobutanecarboxamide]
6.69	8.63	COC(=O)c1ccc(NC(=O)C2(c3ccc(-c4cnc(N)nc4)cc3)CCC2)nc1 [Example 95, methyl 6-[({1-[4-(2-aminopyrimidin-5-yl)phenyl]cyclobuyl}carbonyl)amino]pyridine-3-carboxylate]
6.71	8.52	Cn1nccc1-c1ccc(NC(=O)C2(c3ccc(-c4cnc(N)nc4)cc3)CCC2)nc1 [Example 106, 1-[4-(2-aminopyrimidin-5-yl)phenyl]-N-[5-(1-methyl-1H-pyrazol-5-yl)pyridin-2-yl]cyclobutanecarboxamide]
6.72	8.40	CN(C)S(=O)(=O)c1ccc(NC(=O)C2(c3ccc(-c4cnc(N)nc4)cc3)CCC2)cc1 [Example 87, 1-[4-(2-aminopyrimidin-5-yl)phenyl]-N-[4-(dimethylsulfamoyl)phenyl] cyclobutanecarboxamide]
6.73	8.73	Cc1noc(-c2ccc(NC(=O)C3(c4ccc(-c5cnc(N)nc5)cc4)CCC3)nc2)n1 [Example 100, 1-[4-(2-aminopyrimidin-5-yl)phenyl]-N-[5-(3-methyl-1,2,4-oxadiazol-5-yl)pyridin-2-yl]cyclobutanecarboxamide]
6.81	8.71	Nc1ncc(-c2ccc(C3(C(=O)Nc4ccc(-c5cn[nH]c5)cn4)CCC3)cc2)cn1 [Example 104, 1-[4-(2-aminopyrimidin-5-yl)phenyl]-N-[5-(1H-pyrazol-4-yl)pyridin-2-yl]cyclobutanecarboxamide]
6.99	8.39	Cn1ncnc1-c1ccc(NC(=O)C2(c3ccc(-c4cnc(N)nc4)cc3)CCC2)nc1 [Example 103, 1-[4-(2-aminopyrimidin-5-yl)phenyl]-N-[5-(1-methyl-1H-1,2,4-triazol-5-yl)pyridin-2-yl]cyclobutanecarboxamide]
